Here are results for 28 compounds from patent publication US8637525B2, “Compounds for the reduction of beta-amyloid production” (Bristol-Myers Squibb Company, priority 2009, dated 2014).

The test system of one test is Aβ1-42 production. The test can be described thus: Cellular assay for inhibition of Aβ1-42 production (H4 APP751 SWE clone 8.20). The test is classed as cell-based. As to conditions: 19 h, H4 APP751 SWE clone 8.20 cells, 19 h incubation; class symbols; read-out: Activity Rating (Aβ42 cellular IC50). In short, it runs like this:
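Compound-treated cells were incubated 19 h at 37 °C in 5% CO2. Aβ42 in the cell plate was detected overnight at 4 °C with an Aβ42 neoepitope antibody (565, Wallac-labelled, 0.8 ng/well) plus N-terminal antibody 26D6 (APC, 75 ng/well) in 40 mM Tris-HCl pH 7.4, 0.2% BSA. IC50s came from curve fitting.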
Regarding `COc1cc(Nc2nc3c(c(N4CC(F)(F)C4)n2)CCC3c2ccc(F)cc2)ccc1-n1cnc(Cl)c1` (stereo not shown) [Example 15, N-(4-(4-Chloro-1H-imidazol-1-yl)-3-methoxyphenyl)-4-(3,3-difluoroazetidin-1-yl)-7-(4-fluorophenyl)-6,7-dihydro-5H-cyclopenta[d]pyrimidin-2-amine], the IC50 lay in the range of 10 to 100 nM. The same measure, in the same setting: in the case of `CNc1nc(Nc2ccc(F)c(OC)c2)nc2c1CCC2c1ccccc1` (stereo not shown) [Example 222, N2-(4-fluoro-3-methoxyphenyl)-N4-methyl-7-phenyl-6,7-dihydro-5H-cyclopenta[d]pyrimidine-2,4-diamine] it was above 1000 nM; in that of `CNc1nc(Nc2ccc(-n3cnc(C)n3)c(OC)c2)nc2c1CC[C@@]2(C)c1ccc(F)cc1` (single isomer, unassigned) [Example 265A], 10 to 100 nM. Regarding `CCNc1nc(Nc2ccc(-n3cnc(Cl)c3)c(OC)c2)nc2c1CN(C(C)=O)CC2c1ccccc1` (stereo not shown) [Example 137A, 1-(2-(4-(4-chloro-1H-imidazol-1-yl)-3-methoxyphenylamino)-4-(ethylamino)-8-phenyl-7,8-dihydropyrido[4,3-d]pyrimidin-6(5H)-yl)ethanone], the IC50 lay within 1.5 to 9.9 nM.

Consider `COc1cc(Nc2nc3c(c(N(C)C)n2)COCC3c2ccccc2)ccc1-n1cnc(Cl)c1` (racemic) [Example 53, N^2-(4-(4-Chloro-1H-imidazol-1-yl)-3-methoxyphenyl)-N^4,N^4-dimethyl-8-phenyl-7,8-dihydro-5H-pyrano[4,3-d]pyrimidine-2,4-diamine], for which the IC50 fell in the range of 10 to 100 nM. With `CNc1nc(Nc2ccc(-n3cnc(Cl)c3)c(OC)c2)nc2c1CCOC2c1ccccc1` (stereo not shown) [Example 85, N2-(4-(4-chloro-1H-imidazol-1-yl)-3-methoxyphenyl)-N4-methyl-8-phenyl-6,8-dihydro-5H-pyrano[3,4-d]pyrimidine-2,4-diamine], the 50% inhibitory concentration (IC50) is 1.5 to 9.9 nM.

Consider `COc1cc(Nc2nc3c(c(N4CC(F)(F)C4)n2)CCC3c2ccc(F)cc2)ccc1-n1cnc(Cl)n1` (racemic) [Example 17, N-(4-(3-chloro-1H-1,2,4-triazol-1-yl)-3-methoxyphenyl)-4-(3,3-difluoroazetidin-1-yl)-7-(4-fluorophenyl)-6,7-dihydro-5H-cyclopenta[d]pyrimidin-2-amine], for which the IC50 lay within 10 to 100 nM. On the same count and under the same terms, in the case of `Cc1ncnn1-c1ccc(Nc2nc3c(c(N4CC(F)(F)C4)n2)CCC3c2ccc(F)cc2)cc1F` (racemic) [Example 16, 4-(3,3-difluoroazetidin-1-yl)-N-(3-fluoro-4-(5-methyl-1H-1,2,4-triazol-1-yl)phenyl)-7-(4-fluorophenyl)-6,7-dihydro-5H-cyclopenta[d]pyrimidin-2-amine] it was 10 to 100 nM. The same measure, in the same setting: for `CCNc1nc(Nc2ccc(-n3cnc(C)n3)c(F)c2)nc2c1CN(S(C)(=O)=O)CC2c1ccccc1` (stereo not shown) [Example 139, N4-ethyl-N2-(3-fluoro-4-(3-methyl-1H-1,2,4-triazol-1-yl)phenyl)-6-(methylsulfonyl)-8-phenyl-5,6,7,8-tetrahydropyrido[4,3-d]pyrimidine-2,4-diamine] the value was 10 to 100 nM; for `CNc1nc(Nc2ccc(-n3ncnc3C)c(F)c2)nc2c1CCC2c1ccc(F)cc1` (stereo not shown) [Example 12, N^2-(3-Fluoro-4-(5-methyl-1H-1,2,4-triazol-1-yl)phenyl)-7-(4-fluorophenyl)-N^4-methyl-6,7-dihydro-5H-cyclopenta[d]pyrimidine-2,4-diamine], 1.5 to 9.9 nM. In the case of `COc1cc(Nc2nc3c(c(N4CCC(O)(C(F)(F)F)C4)n2)CCC3c2ccc(F)cc2)ccc1-n1cnc(Cl)c1` (single isomer, unassigned) [Example 27, 1-(2-(4-(4-chloro-1H-imidazol-1-yl)-3-methoxyphenylamino)-7-(4-fluorophenyl)-6,7-dihydro-5H-cyclopenta[d]pyrimidin-4-yl)-3-(trifluoromethyl)pyrrolidin-3-ol], the IC50 lay within 10 to 100 nM. The same measure, in the same setting: in the case of `CCNc1nc(Nc2ccc(-n3cnc(C)n3)c(F)c2)nc2c1CN(C)CC2c1ccccc1` (stereo not shown) [Example 152, N4-ethyl-N2-(3-fluoro-4-(3-methyl-1H-1,2,4-triazol-1-yl)phenyl)-6-methyl-8-phenyl-5,6,7,8-tetrahydropyrido[4,3-d]pyrimidine-2,4-diamine] it was 10 to 100 nM. Still for that read-out and setting: for `CCN(C)c1nc(Nc2ccc(-n3cnc(Cl)c3)c(OC)c2)nc2c1CCNC2c1ccc(F)cc1` (stereo not shown) [Example 166, N2-(4-(4-chloro-1H-imidazol-1-yl)-3-methoxyphenyl)-N4-ethyl-8-(4-fluorophenyl)-N4-methyl-5,6,7,8-tetrahydropyrido[3,4-d]pyrimidine-2,4-diamine] the value was 100 to 1000 nM; for `CNc1nc(Nc2ccc(-n3cnc(C)n3)c(F)c2)nc2c1CCC2c1ccc(F)cc1` (stereo not shown) [Example 35, N^2-(3-fluoro-4-(3-methyl-1H-1,2,4-triazol-1-yl)phenyl)-7-(4-fluorophenyl)-N^4-methyl-6,7-dihydro-5H-cyclopenta[d]pyrimidine-2,4-diamine], 1.5 to 9.9 nM.

Still in this test, the particulars now being: 19 h, H4 APP751 SWE clone 8.20 cells, 19 h incubation; read-out: Activity Rating (Aβ42 cellular IC50), numeric value.
With `CNc1nc(Nc2ccc(Br)c(C#N)c2)nc2c1CCC2c1ccccc1` (stereo not shown) [Example 242, 2-bromo-5-(4-(methylamino)-7-phenyl-6,7-dihydro-5H-cyclopenta[d]pyrimidin-2-ylamino)benzonitrile], the IC50 came to 67 nM. Regarding `COc1cc(Nc2nc3c(c(N4CC(Cl)C4)n2)CCC3c2ccccc2)ccc1-n1cnc(Cl)c1` (stereo not shown) [Example 181B, N-(4-(4-chloro-1H-imidazol-1-yl)-3-methoxyphenyl)-4-(3-chloroazetidin-1-yl)-7-phenyl-6,7-dihydro-5H-cyclopenta[d]pyrimidin-2-amine], the IC50 amounted to 50 nM.

Turning to `COc1cc(Nc2nc3c(c(N4CCC(F)C4)n2)COCC3c2ccc(F)cc2)ccc1-n1cnc(Cl)c1` (stereo in doubt) [Example 58B, N-(4-(4-chloro-1H-imidazol-1-yl)-3-methoxyphenyl)-8-(4-fluorophenyl)-4-((S)-3-fluoropyrrolidin-1-yl)-7,8-dihydro-5H-pyrano[4,3-d]pyrimidin-2-amine], the IC50 was determined as 120 nM. With `CNc1nc(Nc2ccc3c(ccn3C)c2)nc2c1CCC2c1ccccc1` (stereo not shown) [Example 254, N4-methyl-N2-(1-methyl-1H-indol-5-yl)-7-phenyl-6,7-dihydro-5H-cyclopenta[d]pyrimidine-2,4-diamine], the IC50 was 1000 nM. Same read-out and setting: for `CNc1nc(Nc2cnc(-n3cnc(Cl)c3)c(OC)c2)nc2c1CCC2c1cc(F)c(F)c(F)c1` (stereo not shown) [Example 105, N^2-(6-(4-Chloro-1H-imidazol-1-yl)-5-methoxypyridin-3-yl)-N^4-methyl-7-(3,4,5-trifluorophenyl)-6,7-dihydro-5H-cyclopenta[d]pyrimidine-2,4-diamine] the value was 8.8 nM; for `COc1cc(Nc2nc3c(c(N4CCC(F)C4)n2)CCOC3c2ccc(F)cc2)ccc1-n1cnc(Cl)c1` (stereo in doubt) [Example 90B, N-(4-(4-chloro-1H-imidazol-1-yl)-3-methoxyphenyl)-8-(4-fluorophenyl)-4-((R)-3-fluoropyrrolidin-1-yl)-6,8-dihydro-5H-pyrano[3,4-d]pyrimidin-2-amine], 270 nM.

Take `C=CCC1(c2ccccc2)CCc2c(NCC)nc(Nc3ccc(-n4cnc(Cl)c4)c(OC)c3)nc21` (stereo not shown) [Example 111, N2-(4-(4-chloro-1H-imidazol-1-yl)-3-methoxyphenyl)-N4-ethyl-7-allyl-7-phenyl-6,7-dihydro-5H-cyclopenta[d]pyrimidine-2,4-diamine]: the IC50 was determined as 35 nM.

Still in this test, the particulars now being: H4 APP751 SWE clone 8.20 cells, 19 h incubation; class symbols; read-out: Activity Rating (Aβ42 cellular IC50).
In the case of `CNc1nc(Nc2ccc(-n3cnc(Cl)c3)c(OC)c2)nc2c1COCC2c1ccc(Cl)cc1` (single isomer, unassigned) [Example 64B, N^2-(4-(4-chloro-1H-imidazol-1-yl)-3-methoxyphenyl)-8-(4-chlorophenyl)-N^4-methyl-7,8-dihydro-5H-pyrano[4,3-d]pyrimidine-2,4-diamine], the IC50 is 10 to 100 nM. On the same count and under the same terms, for `CNc1nc(Nc2ccc(-n3ncnc3C)c(F)c2)nc2c1COCC2c1ccc(Cl)cc1` (single isomer, unassigned) [Example 69A, 8-(4-chlorophenyl)-N^2-(3-fluoro-4-(5-methyl-1H-1,2,4-triazol-1-yl)phenyl)-N^4-methyl-7,8-dihydro-5H-pyrano[4,3-d]pyrimidine-2,4-diamine] the value was 1.5 to 9.9 nM; for `CNc1nc(Nc2ccc(-n3cnc(Cl)c3)c(OC)c2)nc2c1CCC2c1ccc(OC(F)(F)F)cc1` (single isomer, unassigned) [Example 97A, N^2-(4-(4-chloro-1H-imidazol-1-yl)-3-methoxyphenyl)-N^4-methyl-7-(4-(trifluoromethoxy)phenyl)-6,7-dihydro-5H-cyclopenta[d]pyrimidine-2,4-diamine], 1.5 to 9.9 nM. The same measure, in the same setting: for `COc1cc(Nc2nc3c(c(N4CC[C@H](F)C4)n2)COC3c2ccc(F)cc2)ccc1-n1cnc(Cl)c1` (single isomer, unassigned) [Example 77] the value was 10 to 100 nM. Still for that read-out and setting: in the case of `CNc1nc(Nc2ccc(C#N)c(C(F)(F)F)c2)nc2c1CCC2c1ccccc1` (stereo not shown) [Example 238, 4-(4-(methylamino)-7-phenyl-6,7-dihydro-5H-cyclopenta[d]pyrimidin-2-ylamino)-2-(trifluoromethyl)benzonitrile] it was 100 to 1000 nM. Turning to `CNc1nc(Nc2ccc(-n3ncnc3C)c(F)c2)nc2c1CCC2c1ccc(F)cc1` (stereo not shown) [Example 26, N^2-(3-fluoro-4-(5-methyl-1H-1,2,4-triazol-1-yl)phenyl)-7-(4-fluorophenyl)-N^4-methyl-6,7-dihydro-5H-cyclopenta[d]pyrimidine-2,4-diamine], the IC50 is 1.5 to 9.9 nM.

The test is the same for the next values; noted with them: H4 APP751 SWE clone 8.20 cells, 19 h incubation; read-out: Activity Rating (Aβ42 cellular IC50), numeric value.
For the compound `COc1cc(Nc2nc3c(c(N(C)C)n2)COCC3c2ccc(Cl)cc2)ccc1-n1cnc(Cl)c1` (single isomer, unassigned) [Example 65A, N^2-(4-(4-chloro-1H-imidazol-1-yl)-3-methoxyphenyl)-8-(4-chlorophenyl)-N^4,N^4-dimethyl-7,8-dihydro-5H-pyrano[4,3-d]pyrimidine-2,4-diamine], the 50% inhibitory concentration (IC50) amounted to 5.3 nM.

The term IC50 denotes the midpoint of a concentration-inhibition curve.
